Measurements reported in the supplement of paper PMC11061612.

Key:
[1] = compound: C[C@@H]1COCCN1C2=NC(=NC(=C2)C3(CC3)[S@](=N)(=O)C)C4=C5C=CNC5=NC=C4 [AZD6738]; details: max 10 µM
Outline: (§1)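 Following 24 hours at 37°C and 5% CO2, cancer cell lines in 1536-well plates with 7.5 μl DMEM/F12 or RPMI and 10% FBS were dosed for 72 hours, final DMSO typically being 0.2%. CellTiter-Glo 2.0 luminescence, scaled between blank-well and DMSO-well means, gave the viability readout. Dose responses were fitted to a two-parameter logistic curve with a non-linear mixed effects model, and the single-agent IC50 was derived from this fit.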

[2] = compound: C[C@@H](Nc1cc(F)cc(F)c1)c1cc(C(=O)N(C)C)cc2c(=O)cc(N3CCOCC3)oc12 [AZD8186]; details: max 3 µM
Outline: as §1

[3] = compound: CC1=CN2[C@@H](C1)C=NC3=CC(=C(C=C3C2=O)OC)OCCCCCOC4=C(C=C5C(=C4)N=C[C@@H]6CC(=CN6C5=O)C)OC [SG3199]; details: max 0.001 µM
Outline: as §1

[4] = compound: Cc1cc2ncnn2cc1Nc1ncc2c(n1)n(C1CCOCC1)c(=O)n2C [AZD7648]; details: max 10 µM
Outline: as §1

[5] = compound: C=CCn1c(=O)c2cnc(Nc3ccc(N4CCN(C)CC4)cc3)nc2n1-c1cccc(C(C)(C)O)n1 [AZD1775]; details: max 3 µM
Outline: as §1

[6] = compound: Cn1cnc2c(F)c(Nc3ccc(Br)cc3Cl)c(C(=O)NOCCO)cc21 [Selumetinib]; details: max 10 µM
Outline: as §1

[7] = compound: COc1cccc2c1C(=O)c1c(O)c3c(c(O)c1C2=O)C[C@@](O)(C(=O)CO)C[C@@H]3O[C@H]1C[C@H](N)[C@H](O)[C@H](C)O1 [Doxorubicin]; details: max 1 µM
Outline: as §1

[8] = compound: O=C(c1cc(Cc2n[nH]c(=O)c3ccccc23)ccc1F)N1CCN(C(=O)C2CC2)CC1 [Olaparib]; details: max 10 µM
Outline: as §1

[9] = compound: CCc1c2c(nc3ccc(O)cc13)-c1cc3c(c(=O)n1C2)COC(=O)[C@]3(O)CC [SN-38]; details: max 0.3 µM
Outline: as §1

[10] = compound: COc1cccc(OCCCN)c1-c1cc(Nc2cnc(C#N)cn2)n[nH]1 [Prexasertib]; details: max 1 µM
Outline: as §1

[11] = compound: CC(=O)c1c(C)c2cnc(Nc3ccc(N4CCNCC4)cn3)nc2n(C2CCCC2)c1=O [Palbociclib]; details: max 10 µM
Outline: as §1

[12] = compound: CC1(C)CCC(CN2CCN(c3ccc(C(=O)NS(=O)(=O)c4ccc(NCC5CCOCC5)c([N+](=O)[O-])c4)c(Oc4cnc5[nH]ccc5c4)c3)CC2)=C(c2ccc(Cl)cc2)C1 [Venetoclax]; details: max 1 µM
Outline: as §1

[13] = compound: COc1cc2ncnc(Nc3ccc(F)c(Cl)c3)c2cc1OCCCN1CCOCC1 [Gefitinib]; details: max 10 µM
Outline: as §1

[14] = compound: Cc1c2c(nn1C)CSCc1cc(n(C)n1)CSc1cc(c3ccccc3c1)OCCCc1c(C(=O)O)n(C)c3c-2c(Cl)ccc13 [AZD5991]; details: max 1 µM
Outline: as §1

[15] = compound: COc1cc(Nc2ncc3c(n2)-c2ccc(Cl)cc2C(c2c(F)cccc2OC)=NC3)ccc1C(=O)O [Alisertib]; details: max 10 µM
Outline: as §1

[16] = compound: CCN(CCO)CCCOc1ccc2c(Nc3cc(CC(=O)Nc4cccc(F)c4)[nH]n3)ncnc2c1 [AZD2811]; details: max 1 µM
Outline: as §1

[17] = compound: Cc1nc(-c2cn3c(n2)-c2ccc(-c4cnn(C(C)(C)C(N)=O)c4)cc2OCC3)n(C(C)C)n1 [Taselisib]; details: max 10 µM
Outline: as §1

[18] = compound: CS(=O)(=O)CCNCc1ccc(-c2ccc3ncnc(Nc4ccc(OCc5cccc(F)c5)c(Cl)c4)c3c2)o1 [Lapatinib]; details: max 10 µM
Outline: as §1

[19] = compound: CN(C)CCCOc1ccc(-c2ccc3ncc4c(c3c2)n(C2CCOCC2)c(=O)n4C)cn1 [AZD0156]; details: max 3 µM
Outline: as §1

[20] = compound: CC(C)n1c(=O)n(C)c2cnc3cc(F)c(-c4ccc(OCCCN5CCCCC5)nc4)cc3c21 [AZD1390]; details: max 0.3 µM
Outline: as §1

[21] = compound: C1CN(CCC1(C(=O)N[C@@H](CCO)C2=CC=C(C=C2)Cl)N)C3=NC=NC4=C3C=CN4 [Capivasertib]; details: max 10 µM
Outline: as §1

[22] = compound: C[C@@H](c1ccc2nccn2c1)n1nnc2ncc(-c3cnn(C)c3)nc21 [Savolitinib]; details: max 1 µM
Outline: as §1

[23] = compound: CN(CC[C@H](CSC1=CC=CC=C1)NC2=C(C=C(C=C2)S(=O)(=O)NC(=O)C3=CC=C(C=C3)N4CCC(CC4)[C@H](C5=CC=CC=C5C6=CC=C(C=C6)Cl)O)S(=O)(=O)C(F)(F)F)CCO [AZD4320]; details: max 1 µM
Outline: as §1

[24] = compound: CC1=C(C(=CC=C1)Cl)NC(=O)C2=CN=C(S2)NC3=CC(=NC(=N3)C)N4CCN(CC4)CCO [Dasatinib]; details: max 2 µM
Outline: as §1

[25] = compound: CC(=O)Nc1cccc(-n2c(=O)n(C3CC3)c(=O)c3c(Nc4ccc(I)cc4F)n(C)c(=O)c(C)c32)c1 [Trametinib]; details: max 1 µM
Outline: as §1

[26] = compound: C[C@@H](Oc1cc(-c2cnn(C3CCNCC3)c2)cnc1N)c1c(Cl)ccc(F)c1Cl [Crizotinib]; details: max 10 µM
Outline: as §1

[27] = compound: COc1nnc2ccc(N3CCC(c4ccc(OCCN5CCN(C)C(=O)[C@H]5C)cc4)CC3)nn12 [AZD5153]; details: max 1 µM
Outline: as §1

| Cell Line | IC50, cell viability 72 h [1] | IC50, cell viability 72 h [2] | IC50, cell viability 72 h [3] | IC50, cell viability 72 h [4] | IC50, cell viability 72 h [5] | IC50, cell viability 72 h [6] | IC50, cell viability 72 h [7] | IC50, cell viability 72 h [8] | IC50, cell viability 72 h [9] | IC50, cell viability 72 h [10] | IC50, cell viability 72 h [11] | IC50, cell viability 72 h [12] | IC50, cell viability 72 h [13] | IC50, cell viability 72 h [14] | IC50, cell viability 72 h [15] | IC50, cell viability 72 h [16] | IC50, cell viability 72 h [17] | IC50, cell viability 72 h [18] | IC50, cell viability 72 h [19] | IC50, cell viability 72 h [20] | IC50, cell viability 72 h [21] | IC50, cell viability 72 h [22] | IC50, cell viability 72 h [23] | IC50, cell viability 72 h [24] | IC50, cell viability 72 h [25] | IC50, cell viability 72 h [26] | IC50, cell viability 72 h [27] |
| --- | --- | --- | --- | --- | --- | --- | --- | --- | --- | --- | --- | --- | --- | --- | --- | --- | --- | --- | --- | --- | --- | --- | --- | --- | --- | --- | --- |
| SK-MES-1 (Squamous Cell Lung Carcinoma) | 8 µM | > 3 µM | > 0.001 µM | > 10 µM | 1.36 µM | > 10 µM | > 1 µM | > 10 µM | 0.0305 µM | 0.0605 µM | > 10 µM | > 1 µM | > 10 µM | > 1 µM | > 10 µM | > 1 µM | 4.88 µM | 6.63 µM | > 3 µM | > 0.3 µM | > 10 µM | > 1 µM | > 1 µM | > 2 µM | 0.178 µM | > 10 µM | > 1 µM |
| NCI-H2141 (Small Cell Lung Carcinoma) | > 10 µM | > 3 µM | > 0.001 µM | > 10 µM | 2.2 µM | > 10 µM | > 1 µM | > 10 µM | > 0.3 µM | 0.458 µM | > 10 µM | > 1 µM | > 10 µM | > 1 µM | > 10 µM | > 1 µM | > 10 µM | > 10 µM | > 3 µM | > 0.3 µM | > 10 µM | > 1 µM | 0.307 µM | > 2 µM | > 1 µM | > 10 µM | > 1 µM |
| 8-MG-BA (Glioblastoma) | 2.24 µM | > 3 µM | > 0.001 µM | > 10 µM | 0.43 µM | > 10 µM | 0.393 µM | > 10 µM | 0.0154 µM | 0.0211 µM | > 10 µM | > 1 µM | > 10 µM | 0.676 µM | > 10 µM | > 1 µM | 3.73 µM | 8.81 µM | > 3 µM | > 0.3 µM | > 10 µM | > 1 µM | > 1 µM | 0.255 µM | > 1 µM | 8.8 µM | 0.136 µM |
| COR-L311 (Small Cell Lung Carcinoma) | > 10 µM | > 3 µM | > 0.001 µM | > 10 µM | 0.91 µM | > 10 µM | 0.685 µM | > 10 µM | 0.00307 µM | 0.107 µM | > 10 µM | 0.208 µM | > 10 µM | > 1 µM | 1.51 µM | 0.0754 µM | 1.61 µM | > 10 µM | > 3 µM | > 0.3 µM | 3.02 µM | > 1 µM | 0.00192 µM | > 2 µM | > 1 µM | 2.97 µM | 0.175 µM |
| SK-MG-1 (Low Grade Glioma) | > 10 µM | 2.73 µM | > 0.001 µM | > 10 µM | > 3 µM | > 10 µM | > 1 µM | > 10 µM | 0.06 µM | 0.0828 µM | > 10 µM | > 1 µM | > 10 µM | > 1 µM | > 10 µM | > 1 µM | 1.62 µM | > 10 µM | > 3 µM | > 0.3 µM | > 10 µM | > 1 µM | > 1 µM | 0.886 µM | > 1 µM | > 10 µM | > 1 µM |
| CAL-29 (Bladder Carcinoma) | 6.08 µM | > 3 µM | > 0.001 µM | > 10 µM | 0.762 µM | > 10 µM | > 1 µM | > 10 µM | 0.0143 µM | 0.0418 µM | > 10 µM | > 1 µM | > 10 µM | > 1 µM | > 10 µM | > 1 µM | 0.218 µM | > 10 µM | > 3 µM | > 0.3 µM | > 10 µM | > 1 µM | > 1 µM | > 2 µM | > 1 µM | > 10 µM | > 1 µM |
| SISO (Cervical Carcinoma) | > 10 µM | > 3 µM | > 0.001 µM | > 10 µM | 1.53 µM | > 10 µM | 0.29 µM | > 10 µM | 0.0236 µM | 0.237 µM | > 10 µM | > 1 µM | > 10 µM | > 1 µM | 6.21 µM | > 1 µM | > 10 µM | > 10 µM | > 3 µM | > 0.3 µM | > 10 µM | > 1 µM | > 1 µM | > 2 µM | > 1 µM | > 10 µM | > 1 µM |
| COLO-824 (Breast Carcinoma) | 5.51 µM | > 3 µM | > 0.001 µM | > 10 µM | 0.868 µM | > 10 µM | > 1 µM | > 10 µM | > 0.3 µM | 0.0646 µM | > 10 µM | 0.214 µM | > 10 µM | > 1 µM | 3.01 µM | 0.0558 µM | 2.46 µM | 7.96 µM | > 3 µM | > 0.3 µM | 7.34 µM | > 1 µM | 0.0333 µM | > 2 µM | > 1 µM | 4.32 µM | 0.233 µM |
